From PubChem BioAssay (NCI)
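Results reflect a 48-hour exposure of cells in 96-well plates to compound at five concentrations. TGI: total growth inhibition.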

Experiments:
Assay in all cases: NCI anticancer screen, dose series, 48 h
NCI-H522 lung = tested on: NCI-H522 lung
SF-268 CNS = tested on: SF-268 CNS
PC-3 prostate = tested on: PC-3 prostate
HCT-116 colon = tested on: HCT-116 colon
MDA-MB-435 = tested on: MDA-MB-435
OVCAR-5 ovarian = tested on: OVCAR-5 ovarian
M14 melanoma = tested on: M14 melanoma
LOX IMVI melanoma = tested on: LOX IMVI melanoma
NCI/ADR-RES ovarian = tested on: NCI/ADR-RES ovarian
HS 578T breast = tested on: HS 578T breast
SK-MEL-5 melanoma = tested on: SK-MEL-5 melanoma
SF-539 CNS = tested on: SF-539 CNS
HOP-92 NSCLC = tested on: HOP-92 NSCLC
RXF 393 renal = tested on: RXF 393 renal
SW-620 colon = tested on: SW-620 colon
ACHN renal = tested on: ACHN renal
EKVX NSCLC = tested on: EKVX NSCLC
NCI-H460 lung = tested on: NCI-H460 lung
HCT-15 colon = tested on: HCT-15 colon
NCI-H23 lung = tested on: NCI-H23 lung
UACC-62 melanoma = tested on: UACC-62 melanoma
SK-MEL-2 melanoma = tested on: SK-MEL-2 melanoma
MDA-MB-231 breast = tested on: MDA-MB-231 breast
HOP-62 NSCLC = tested on: HOP-62 NSCLC
CAKI-1 renal = tested on: CAKI-1 renal
DU-145 prostate = tested on: DU-145 prostate
MOLT-4 leukemia = tested on: MOLT-4 leukemia
A549 NSCLC = tested on: A549 NSCLC
SK-MEL-28 melanoma = tested on: SK-MEL-28 melanoma
CCRF-CEM leukemia = tested on: CCRF-CEM leukemia
SR leukemia = tested on: SR leukemia
RPMI-8226 leukemia = tested on: RPMI-8226 leukemia
IGROV1 ovarian = tested on: IGROV1 ovarian
TK-10 renal = tested on: TK-10 renal
SK-OV-3 ovarian = tested on: SK-OV-3 ovarian
A498 renal = tested on: A498 renal
MALME-3M melanoma = tested on: MALME-3M melanoma
T-47D breast = tested on: T-47D breast
UACC-257 melanoma = tested on: UACC-257 melanoma
BT-549 breast = tested on: BT-549 breast
OVCAR-4 ovarian = tested on: OVCAR-4 ovarian
KM12 colon = tested on: KM12 colon
SNB-19 CNS = tested on: SNB-19 CNS
OVCAR-8 ovarian = tested on: OVCAR-8 ovarian
K-562 leukemia = tested on: K-562 leukemia
HT29 colon = tested on: HT29 colon
786-0 renal = tested on: 786-0 renal
MCF7 breast = tested on: MCF7 breast
COLO 205 colon = tested on: COLO 205 colon
OVCAR-3 ovarian = tested on: OVCAR-3 ovarian
MDA-N = tested on: MDA-N
SN12C renal = tested on: SN12C renal
SF-295 CNS = tested on: SF-295 CNS
U251 CNS = tested on: U251 CNS
UO-31 renal = tested on: UO-31 renal
HL-60(TB) leukemia = tested on: HL-60(TB) leukemia
NCI-H226 lung = tested on: NCI-H226 lung
SNB-75 CNS = tested on: SNB-75 CNS
HCC-2998 colon = tested on: HCC-2998 colon

Measured: TGI

CCOC(=O)Nc1ccc(S(=O)(=O)Nc2ccc(Br)cc2)cc1
35.4 µM: SF-539 CNS
68.4 µM: OVCAR-8 ovarian
34.4 µM: K-562 leukemia
72 µM: NCI-H460 lung
30.4 µM: COLO 205 colon
75.7 µM: MCF7 breast
57.1 µM: OVCAR-4 ovarian
88.7 µM: SK-MEL-5 melanoma
97.8 µM: SF-295 CNS
50.4 µM: SR leukemia
89.5 µM: EKVX NSCLC
93.5 µM: MDA-MB-231 breast
48.4 µM: A498 renal
86.7 µM: HOP-62 NSCLC
85.2 µM: ACHN renal
not listed: NCI-H226 lung | SNB-75 CNS | HCC-2998 colon
> 100 µM: all other assays above

NC12c3c4cccc3Oc3cccc(c31)Oc1cccc(c12)O4
not listed: LOX IMVI melanoma | SK-MEL-5 melanoma | TK-10 renal | MALME-3M melanoma | HCC-2998 colon
> 50 µM: all other assays above

Brc1ccc(-c2ccc(-c3ccc(Br)s3)s2)s1
not listed: NCI-H522 lung | MDA-MB-231 breast | CAKI-1 renal | MALME-3M melanoma
> 100 µM: all other assays above

COc1ccc(N=NN2CCCC2)cc1
43.6 µM: OVCAR-4 ovarian
78 µM: MCF7 breast
43.8 µM: OVCAR-3 ovarian
66.7 µM: SF-539 CNS
37.2 µM: LOX IMVI melanoma
81.4 µM: SW-620 colon
35.1 µM: CAKI-1 renal
56.6 µM: CCRF-CEM leukemia
64.1 µM: RXF 393 renal
35.5 µM: COLO 205 colon
47.7 µM: MDA-MB-231 breast
55 µM: SN12C renal
14.7 µM: KM12 colon
29.9 µM: ACHN renal
39.3 µM: MALME-3M melanoma
49.2 µM: T-47D breast
42.4 µM: HOP-92 NSCLC
32.7 µM: 786-0 renal
39.8 µM: MDA-N
58.8 µM: EKVX NSCLC
74.1 µM: RPMI-8226 leukemia
38.6 µM: HCT-116 colon
60.7 µM: HCT-15 colon
41 µM: IGROV1 ovarian
32.2 µM: NCI-H522 lung
60.6 µM: MOLT-4 leukemia | BT-549 breast
not listed: NCI/ADR-RES ovarian | OVCAR-8 ovarian | SNB-75 CNS
> 100 µM: all other assays above
